{"source": "patent US10413562B2", "about": "“Compositions and methods for the production of pyrimidine and pyridine compounds with BTK inhibitory activity” (Merck Patent GmbH, priority 2011, dated 2019)", "key": {"PBMC": {"test_system": "PBMC", "experiment": "Time dependent PBMC IC50 assay", "assay_type": "cell-based", "description": "Compounds described by embodiments of the present invention were assayed using a time dependent PMBC assay."}, "NZB/W F1 mice": {"test_system": "NZB/W F1 mice", "experiment": "Interferon-alpha accelerated systemic lupus erythematosus (SLE) mouse model", "assay_type": "in vivo", "details": "ADV-IFN-alpha accelerated SLE, oral daily 0.1, 0.3, 1 or 3 mg/kg from day 14", "description": "1-(4-(((6-amino-5-(4-phenoxyphenyl)pyrimidin-4-yl)amino)methyl)piperidin-1-yl)prop-2-en-1-one, designated as “CPD. B”, was evaluated in an interferon-alpha accelerated SLE mouse model. NZB/W F1 mice received i.v. injection at day 0 and day 1 of 10^8 infectious units of adenovirus (ADV-IFN-α) to deliver a transient overexpression on interferon alpha. Oral dosing of the different group treatments was initiated on day 14 and continued daily at 24 hour intervals until the end of the study. Treatment groups consisted of 20% Kleptose HPB in Na-citrate buffer (vehicle) or 0.1, 0.3, 1, or 3 mg/kg of Cpd. […] As shown in Panel 1B Cpd. […] FIG. 2 presents data from another interferon-alpha accelerated SLE experiment in mice. NZB/W F1 mice received i.v. injections at day 0 and day 1 of 10^8 infectious units of adenovirus (ADV-IFN-α) to deliver a transient overexpression on interferon alpha. Oral dosing of the different group treatments (n=10) was initiated on day 14 and continued daily at 24 hour intervals until the end of the study. Treatment groups consisted of 20% Kleptose HPB in Na-citrate buffer (vehicle), 0.1, 0.3, 1, or 3 mg/kg of Cpd. B or Cell Cept®. […] Statiscal analysis was performed using Two way ANOVA with Bonferroni post test with all groups compared to vehicle treated group (*=p<0.05, **=p<0.01, ***=p<0.001)."}}, "data": [{"smiles": "C=CC(=O)N1C2CCC1CC(CNc1ncnc(N)c1-c1ccc(Oc3ccccc3)cc1)C2", "note": "(centres unmarked) [Compound A48, 1-(3-(((6-amino-5-(4-phenoxyphenyl)pyrimidin-4-yl)amino)methyl)-8-azabicyclo[3.2.1]octan-8-yl)prop-2-en-1-one]", "values": [{"measurement": "IC50", "setting": "PBMC", "value": "< 1000", "unit": "nM"}]}, {"smiles": "C=CC(=O)N1CCC(CNc2ncnc(N)c2-c2ccc(Oc3ccccc3)cc2)CC1", "note": "[Cpd. B, 1-(4-(((6-amino-5-(4-phenoxyphenyl)pyrimidin-4-yl)amino)methyl)piperidin-1-yl)prop-2-en-1-one]", "values": [{"measurement": "disease activity", "setting": "NZB/W F1 mice", "value": "reduces the disease activity in a dose-dependent manner"}]}]}
